The term IC50 denotes the point on the concentration scale where inhibition reaches its midpoint.

This is an account of results in patent EP0973746B1, “SUBSTITUTED 3-CYANO QUINOLINES” (Wyeth Holdings Corporation, priority 1997, dated 1998).

Values joined by “and” are separate entries in the source; they are usually repeats but may differ in a detail not shown here. Identical values can stand only once.

The experiment addresses recombinant human MEK 1 (MAPKK) and recombinant human ERK2 (MAPK). Put plainly: Mitogen Activated Protein Kinase (MAPK) assay, two component coupled MEK 1 / ERK2.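 Also: MEK 1-activated ERK2 phosphorylates MBP or Myc peptide with 33P-ATP, filter capture and scintillation counting, inhibitor preincubated with ERK2 30 min at 0 °C, inhibition relative to uninhibited control.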 The settings on record: separate entries for the same compound = evaluated more than one time. Type of experiment: biochemical.

With `COCCOc1ccc2ncc(C#N)c(Nc3cccc(N(C)C)c3)c2c1OCCOC` [Example 117], the IC50 is 40 µM and 28 µM.

As for `COc1cc2ncc(C#N)c(Nc3ccc(F)c(Cl)c3)c2cc1OCCCN1CCOCC1` [Example 125], the IC50 was > 100 µM.

With `COc1cc2ncc(C#N)c(Nc3cccc(Br)c3)c2cc1OCCCN1CCOCC1` [Example 126], the IC50 is > 100 µM.

On to `N#Cc1cnc2ccc([N+](=O)[O-])cc2c1Nc1cccc(I)c1` [Example 131, 4-[(3-Iodophenyl)amino]-6-nitro-3-quinolinecarbonitrile], for which the IC50 was > 100 µM.

With `Cc1cccc(Nc2c(C#N)cnc3ccc([N+](=O)[O-])cc23)c1` [Example 134], the IC50 is > 100 µM and 80 µM.

On to `N#Cc1cnc2ccc(N)cc2c1Nc1cccc(Cl)c1` [Example 136, 6-Amino-4-[(3-chlorophenyl)amino]-3-quinolinecarbonitrile], for which the IC50 is 70 µM and > 100 µM.

For the compound `COc1cccc(Nc2c(C#N)cnc3ccc(N)cc23)c1` [Example 141, 6-Amino-4-[(3-methoxyphenyl)amino]-3-quinolinecarbonitrile], the IC50 worked out at 35 µM.

As for `N#Cc1cnc2ccc(N)cc2c1Nc1ccc(F)c(Cl)c1` [Example 149, 6-Amino-4-[(3-chloro-4-fluorophenyl)amino]-3-quinolinecarbonitrile], the IC50 is 2 µM and 4 µM.

On to `N#Cc1cnc2ccc([N+](=O)[O-])cc2c1Nc1ccc(F)c(Cl)c1` [Example 150, 4-[(3-chloro-4-fluorophenyl)amino]-6-nitro-3-quinolinecarbonitrile], for which the IC50 is > 100 µM.

For the compound `N#Cc1cnc2ccc([N+](=O)[O-])cc2c1Nc1ccc(Br)cc1` [Example 153, 4-[(4-Bromophenyl)amino]-6-nitro-3-quinolinecarbonitrile], the IC50 was > 100 µM.

Turning to `N#Cc1cnc2ccc([N+](=O)[O-])cc2c1Nc1ccc(Sc2ccccc2)c(Cl)c1` [Example 159, 4-[(3-Chloro-4-thiophenoxyphenyl)amino]-6-nitro-3-quinolinecarbonitrile], the half-maximal inhibitory concentration (IC50) is > 100 µM.

In the case of `CN(C)CC#CC(=O)Nc1ccc2ncc(C#N)c(Nc3ccc(F)c(Br)c3)c2c1` [Example 197, N-[4-[(3-Bromo-4-fluorophenyl)amino]-3-cyano-6-quinolinyl]-4-dimethylamino-2-butynamide], the IC50 came out at 35 µM.

Turning to `COc1cc2ncc(C#N)c(Nc3ccc(C)c(Br)c3)c2cc1OC` [Example 248, 4-(3-Bromo-4-methyl-phenylamino)-6.7-dimethoxy-quinoline-3-carbonitrile], the IC50 was found to be 8 µM.

For the compound `CCOc1cc2ncc(C#N)c(Nc3cccc(C(C)=O)c3)c2cc1OCC` [Example 257, 4-(3-acetylphenylamino)-6,7-diethoxy-3-quinolinecarbonitrile], the IC50 is > 100 µM.

Take `COc1cc2ncc(C#N)c(Nc3cccc(NC(C)=O)c3)c2cc1OC` [Example 265, 4-(3-Acetamidophenylamino)-6,7-dimethoxy-3-quinolinecarbonitrile]: the IC50 came out at 20 µM.

Take `CC#CC(=O)Nc1cccc(Nc2c(C#N)cnc3cc(OC)c(OC)cc23)c1` [Example 266, 4-[3-(2-Butynoylamino)phenylamino]1-6,7-dimethoxy-3-quinolinecarbonitrile]: the IC50 was > 100 µM.

Turning to `COc1cc2ncc(C#N)c(Nc3cccc(CCl)c3)c2cc1OC` [Example 268, 4-[3-(Chloromethyl)phenylamino]-6,7-dimethoxy-3-quinolinecarbonitrile], the concentration for half-maximal inhibition (IC50) is 15 µM.

Turning to `COc1cc2ncc(C#N)c(Nc3cc(C)c(O)c(C)c3)c2cc1OC` [Example 288, 4-(4-Hydroxy-3,5-dimethyl-phenylamino)-6,7-dimethoxy-quinoline-3-carbinitile], the IC50 is 16 µM.

With `COc1cc2ncc(C#N)c(Nc3cccnc3)c2cc1OC` [Example 293, 6,7-Dimethoxy-4-(pyridin-3-ylamino)-quinoline-3-carbonitrile], the IC50 was > 100 µM.

With `COc1cc2ncc(C#N)c(Nc3ccc(O)cc3Cl)c2cc1OC` [Example 296, 4-(2-Chloro-4-hydroxy-phenylamino)-6,7-dimethoxy-quinoline-3-carbonitrile], the IC50 turned out to be 3.5 µM.

As to `COc1cc2ncc(C#N)c(Nc3ccc(SC)cc3)c2cc1OC` [Example 298, 6.7-Dimethoxy-4-(4-methylsulfanyl-phenylamino)-quinoline-3-carbonitrile], the IC50 is < 1 µM.

Turning to `COc1cc2ncc(C#N)c(Nc3ccc(CCO)cc3)c2cc1OC` [Example 299, 4-[4-(2-Hydroxy-ethyl)-phenylamino]-6,7-dimethoxy-quinoline-3-carbonitrile], the IC50 is > 100 µM.

For `COc1cc2ncc(C#N)c(Nc3ccc(O)cc3O)c2cc1OC` [Example 300, 4-(2,4-Dihydroxy-phenylamino)-6,7-dimethoxy-quinoline-3-carbonitrile], the IC50 stood at 20 µM.

As for `COc1cc2ncc(C#N)c(Nc3ccccc3CCO)c2cc1OC` [Example 301, 4-[2-(2-Hydroxy-ethyl)-phenylamino]-6,7-dimethoxy-quinoline-3-carbonitrile], the IC50 is 12 µM.

Consider `CCCOc1cc2ncc(C#N)c(Nc3cccc(Br)c3)c2cc1OCCC` [Example 303, 4-(3-Bromophenylamino)-6.7-di-n-propoxy-3-quinolinecarbonitrile], for which the IC50 is > 100 µM.

Turning to `CCCCOc1cc2ncc(C#N)c(Nc3cccc(Br)c3)c2cc1OCCCC` [Example 305, 4-(3-Bromophenylamino)-6,7-di-n-butoxy-3-quinolinecarbonitrile], the IC50 was > 100 µM.

Turning to `COc1cc2ncc(C#N)c(Nc3cc(O)c(Cl)cc3F)c2cc1OCCCN1CCOCC1` [Example 323, 4-(4-Chloro-2-fluoro-5-hydroxy-phenylamino)-7-methoxy-6-(3-morpholin-4-yl)-propoxyl-quinoline-3-carbonitrile], the concentration for half-maximal inhibition (IC50) is 15 µM.

Turning to `COCc1cc2ncc(C#N)c(Nc3cccc(Br)c3)c2cc1COC` [Example 325, 4-(3-Bromophenylamino)-6,7-di-methoxymethyl-3-quinolinecarbonitrile], the IC50 is > 100 µM.

Regarding `COc1cc2ncc(C#N)c(Nc3cccc(CO)c3C)c2cc1OC` [Example 333, 4-(3-Hydroxymethyl-2-methylphenylamino)-6,7-dimethoxyquinoline-3-carbonitrile], the IC50 was determined as 10 µM.

`COc1cc2ncc(C#N)c(Nc3cccc(O)c3)c2cc1OC` [Example 339, 4-(3-Hydroxy-phenylamino)-6,7-dimethoxy-quinoline-3-carbonitrile]: the IC50 was 65 µM and 50 µM.

Turning to `COc1cc2ncc(C#N)c(Nc3ccc(C)cc3)c2cc1OC` [Example 340, 4-(4-methyl-phenylamino)-6,7-dimethoxy-quinoline-3-carbonitrile], the IC50 is > 100 µM.

As for `COc1cc([N+](=O)[O-])cc2c(Nc3ccc(C)c(O)c3)c(C#N)cnc12` [Example 341, 4-(3-Hydroxy-4-methyl-phenylamino)-8-methoxy-6-nitro-quinoline-3-carbonitrile], the IC50 is > 100 µM.

As for `COc1cc([N+](=O)[O-])cc2c(Nc3ccc(Cl)cc3F)c(C#N)cnc12` [Example 342, 4-(4-chloro-2-fluoro-phenylamino)-8-methoxy-6-nitro-quinoline-3-carbonitrile], the IC50 is > 100 µM.

For `COc1ccc(Nc2c(C#N)cnc3c(OC)cc([N+](=O)[O-])cc23)cc1O` [Example 343, 4-(3-hydroxy-4-methoxy-phenylamino)-8-methoxy-6-nitro-quinoline-3-carbonitrile], the IC50 is 60 µM.

With `COc1cc(N)cc2c(Nc3ccc(C)c(O)c3)c(C#N)cnc12` [Example 344, 6-Amino-4-(3-hydroxy-4-methyl-phenylamino)-8-methoxy-quinoline-3-carbonitrile], the IC50 was > 100 µM.

Regarding `COc1ccc(Nc2c(C#N)cnc3c(OC)cc(N)cc23)cc1O` [Example 345, 6-Amino-4-(3-hydroxy-4-methoxy-phenylamino)-8-methoxy-quinoline-3-carbonitrile], the IC50 is > 100 µM.

Turning to `CC#CC(=O)Nc1ccc2ncc(C#N)c(Nc3cccc(I)c3)c2c1` [Example 348, N-{3-Cyano-4-[(3-iodophenyl)amino]-6-quinolinyl}-2-butynamide], the half-inhibitory concentration (IC50) is > 100 µM and 80 µM.

As for `C=CC(=O)Nc1ccc2ncc(C#N)c(Nc3cccc(C)c3)c2c1` [Example 349, N-{3-Cyano-4-[(3-methylphenyl)amino]-6-quinolinyl]-2-propenamide], the IC50 is > 100 µM.

As for `C=CC(=O)Nc1ccc2ncc(C#N)c(Nc3ccc(Sc4ccccc4)c(Cl)c3)c2c1` [Example 351, N-{4-[(3-Chloro-4-thiophenoxyphenyl)amino]-3-cyano-6-quinoliny}-2-propenamide], the IC50 was determined as 32 µM.

Take `CC#CC(=O)Nc1ccc2ncc(C#N)c(Nc3cccc(Cl)c3)c2c1` [Example 353, N-{4-[(3-Chlorophenyl)amino]-3-cyano-6-quinolinyl}-2-butynamide]: the IC50 came to 40 µM.

Turning to `CC#CC(=O)Nc1ccc2ncc(C#N)c(Nc3cccc(C(C)C)c3)c2c1` [Example 354, N-{3-Cyano-4-[(3-isopropylphenyl)amino]-6-quinolinyl}-2-butynamide], the IC50 is > 100 µM.

For `C=CC(=O)Nc1ccc2ncc(C#N)c(Nc3cccc(C(C)C)c3)c2c1` [Example 355, N-{3-Cyano-4-[(3-isopropylphenyl)amino]-6-quinolinyl}-2-propenamide], the IC50 was determined as 45 µM.

`CC(C)c1cccc(Nc2c(C#N)cnc3ccc(N)cc23)c1` [Example 356, 6-Amino-4-[(3-isopropylphenyl)amino]-3-quinolinecarbonitrile]: the IC50 was > 100 µM.

As for `CC(C)c1cccc(Nc2c(C#N)cnc3ccc([N+](=O)[O-])cc23)c1` [Example 357, 4-[(3-Isopropylphenyl)amino]-6-nitro-3-quinolinecarbonitrile], the IC50 is > 100 µM.

Regarding `COc1cc2ncc(C#N)c(Nc3cccc(N=[N+]=[N-])c3)c2cc1OC` [Example 359, 4-(3-Azido-phenylamino)-6,7-dimethoxy-quinoline-3-carbonitrile], the IC50 is > 100 µM.

Consider `N#Cc1cnc2ccc([N+](=O)[O-])cc2c1Nc1ccc(Cl)c(Cl)c1` [Example 362, 4-[(3.4-dichlorophenyl)amino]-6-nitro-3-quinolinecarbonitrile], for which the IC50 is > 100 µM.
